Source: US7605227B2, “Melanoma antigen peptide analogues” (MannKind Corporation, priority 2005, dated 2009)
“Also recorded” adds a separate entry of the source. Square brackets hold non-standard residues; d marks the D form. Ends that are not written are not given here. Nle = CCCC[C@H](N)C(=O)O; Nva = CCC[C@H](N)C(=O)O

What was measured:
624.38 melanoma cells = test: Plasmid prime, SSX-2 peptide boost, ex vivo cytotoxicity against human tumor cells; type: in vivo, mice; settings: ex vivo after boost
Procedure: Eight groups of mice (n=4) were immunized with plasmid expressing SSX-241-49 natural epitope by direct inoculation into the inguinal lymph nodes with 25 μg in 25 μl of PBS/each lymph node at day 0, 3, 14 and 17. This was followed by two additional peptide boosts (similar amount) at day 28 and 31, using a negative control peptide (Melan A 26-35 “EAA”), natural peptide or analogs as shown in FIG. 9.

[1] = system: 51Cr-labeled target cells (T2 cells); test: Plasmid prime, SSX-2 peptide boost, ex vivo 51Cr cytotoxicity against T2 target cells; type: in vivo, mice; settings: peptide as boost agent after plasmid; 51Cr T2 targets
Procedure: Three groups of mice (n=4) were immunized with a plasmid expressing SSX-241-49 natural epitope by direct inoculation into the inguinal lymph nodes with 25 μg in 25 μl of PBS/each lymph node at day 0, 3, 14 and 17. This was followed by two additional peptide boosts (similar amount) at day 28 and 31. One week after the boost, splenocytes were stimulated ex vivo with SSX-241-49 natural peptide and tested against ^51Cr-labeled target cells (T2 cells) at various E:T ratios (FIG. 8). […] This correlated with the binding and stability parameters determined by ex vivo experimentation.

[2] = system: T cell lines against a natural (non-mutated) epitope (SSX-241-49); test: Cross-reactivity and functional avidity: IFN-gamma from T cell lines against natural SSX-2 41-49 epitope; type: cell-based, HHD transgenic mice; settings: IFN-gamma from T cell line raised against native SSX-2 41-49; native = 1, lower = more active;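 further: peptide analogs tested ex vivo with competent APCs, IFN-gamma in supernatant measured by ELISA, readouts include minimal triggering concentration, peak effect and concentration at peak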
[3] = system: target cells coated with natural peptide; test: Plasmid prime, SSX-2 peptide boost, in vivo cytotoxicity (CFSE); parameters: species or system HHD mice; settings: spleen and blood; targets coated with 20 μg/ml and 1 μg/ml natural peptide
Procedure: Eight groups of mice (n=4) were immunized with plasmid expressing SSX-241-49 natural epitope, by direct inoculation into the inguinal lymph nodes with 25 μg in 25 μl of PBS/each lymph node at day 0, 3, 14 and 17. This was followed by two additional peptide boosts (similar amount) at day 28 and 31, using a negative control peptide (Melan A 26-35 “EAA”), natural peptide or analogs as shown in FIG. 9.
To evaluate the in vivo response against natural peptide, splenocytes were isolated from littermate control HHD mice and incubated with 20 μg/mL or 1 μg/ml of natural peptide for 2 hours. These cells were then stained with CFSE^hi fluorescence (4.0 μM or 1 μM for 15 minutes) and intravenously co-injected into immunized mice with an equal number of control splenocytes stained with CFSE^lo fluorescence (0.4 μM). Eighteen hours later the specific elimination of target cells was measured by removing spleen and PBMC from challenged animals and measuring CFSE fluorescence by flow cytometry. The relative depletion of the populations corresponding to peptide loaded splenocytes was calculated relative to the control (unloaded) population and expressed as % specific lysis. FIGS. 10 (spleen) and 11 (blood) show the in vivo cytotoxicity elicited by the regimens described in FIG. 7.

HLA-A*0201 = HLA-A*0201 (Homo sapiens, UniProt P04439, D140Y/D185E/D98H/E176V/E277Q/G131W/G231S/I119V/I121R/I166T/I218V/L300P/L318F/N151K/N90K/P208A/P217A/Q86G/Q94H/R138H/R169H/T345S); test: iTopia affinity assay (ED50); type: binding; settings: PRAME425-433 analogs
Source text: Avidin-coated microtiter plates containing class I monomer loaded with a so-called placeholder peptide were used to evaluate peptide binding, affinity and off-rate. The monomer-coated plates were supplied as part of the iTopia Epitope Discovery System Kit (Beckman Coulter, Inc., San Diego, Calif., USA). Assay buffers, anti-MHC-FITC mAb and beta2-microglobulin and control peptides were also supplied with the kits.
Plates were read on the fluorometer. Sigmoidal dose response curves were generated using Prism software.

[4] = system: T cells specific for the wild-type NY-ESO-1157-165 epitope; test: Cross-reactivity and functional avidity of NY-ESO-1 157-165 analogs (IFN-gamma); type: cell-based, HHD transgenic mice
Source text: A methodology was devised to allow rapid and rational screening of peptide analogs in a fashion coherent with proposed methods of use and modeling the overall immunologic properties (Kon and Koff relative to MHC interaction and TCR binding properties in an integrated fashion). In some instances, the method included generating T cell lines against a natural (non-mutated) epitope (SSX-241-49), and using an immunization strategy potent enough to generate a useful response in transgenic mice carrying human MHC (such as the A2 allele). Peptide analogs were interrogated ex vivo in the presence of competent APCs and the functional impact of T cells specific for natural (non-mutated) epitopes measured. The evaluation was done at various concentrations of analog, because the expected effect was biphasic in the case of cross reactive peptides (activating at limited concentrations and inhibiting at higher concentrations, due to antigen-induced cell death, AICD). Measurement of the following three parameters were used to define basic and useful characteristics of peptide analogs: • 1. […]
At 7 days after the last boost, the mice were sacrificed and a suspension of splenocytes prepared at 5×10^6 […] cells/ml in complete HL-1 medium. […] The supernatant was harvested and the concentration of IFN-gamma assessed by standard methods such as ELISA. […]

[5] = system: T cell line specific for the native epitope (PRAME425-433); test: Cross-reactivity of PRAME425-433 analogs: IFN-gamma from native-epitope-specific T cell line; type: cell-based
Procedure: The analogs listed in FIGS. 26-28 were tested for various properties such as improved affinity and stability of binding, cross-reactivity with the native epitope, and immunogenicity as follows in Examples 40-48. […] The observed affinities of the analogs are reported as % binding (compared to the positive control) and ED50, and stability of binding as half time of dissociation. Cross reactivity with the native epitope was assessed by using the analog peptides to stimulate IFN-gamma secretion from a T cell line specific for the native epitope, essentially as described in Example 6. The data shown in FIGS. 26-28 were generated by stimulating with analog peptide at approximately 0.3 μM. […] In some cases, the reported values are the average of two determinations.

[6] = system: PRAME+ A2+ 624.38 melanoma cells; test: PRAME immunization, ex vivo cytotoxicity against human tumor cells; type: in vivo, HHD transgenic mice
Procedure: This was followed by two peptide boosts (2.5 μg) at day 28 and 31, with the analog L426Nva L433Nle.

[7] = system: PRAME425-433-specific T cells; test: pCTLR2 prime, PRAME peptide boost, tetramer/CD8 co-staining; type: in vivo, HHD transgenic mice; settings: versus boost with negative control peptide
[8] = system: native epitope coated cells; test: pCTLR2 prime, PRAME peptide boost, in vivo cytotoxicity (CFSE); parameters: species or system HHD transgenic mice
[9] = system: splenocytes stimulated with native peptide; test: pCTLR2 prime, PRAME peptide boost, ex vivo IFN-gamma ELISA; type: in vivo, HHD transgenic mice; settings: 2.5 μg peptide boost, 10 μg/ml native peptide, 48 hours
624.38 cells = test: pSEM prime, Tyrosinase peptide boost, ex vivo cytotoxicity against human tumor cells; type: in vivo, HHD transgenic mice
Procedure: HHD transgenic mice (n=4/group) were immunized (according to the general protocol in FIG. 40) with plasmid (pSEM) expressing the Tyrosinase369-377 epitope by direct inoculation into the inguinal lymph nodes of 25 μg of plasmid in 25 μl of PBS per lymph node at day 0, 3, 14 and 17. […] One week after the boost, splenocytes were stimulated ex vivo with the native Tyrosinase369-377 peptide and assayed against ^51Cr-labeled human tumor cells (624.38 cells) at various E:T ratios. […] Together with the preceding example, this observation illustrates the usefulness of complementing more stringent assays (in vivo cytotoxicity and tetramer staining) with more sensitive assays (ex vivo cytotoxicity after in vitro stimulation) to outline potentially useful analogs.

With `CC[C@H](C)[C@H](NC(=O)[C@H](CCCCN)NC(=O)[C@H](CCC(=O)O)NC(=O)[C@H](CO)NC(=O)[C@@H](NC(=O)[C@@H](N)CCCCN)C(C)C)C(=O)N[C@@H](Cc1ccccc1)C(=O)N[C@@H](Cc1ccc(O)cc1)C(=O)N[C@H](C(=O)O)C(C)C` [SSX2 41-49 (A42V)] the “cytotoxicity against human tumor cells, in words” value (624.38 melanoma cells) was “increased cytotoxicity against human tumor cells”, the “response against target cells expressing the natural peptide” value [1] was “higher response against target cells expressing the natural peptide” and the “Cross-reactivity and fct avidity (native to analogs)*” value [2] was 0.03. The “in vivo cytotoxicity (% specific lysis), in words” value [3] was “increased activity relative to the natural peptide”.
“Ala substitution: PRAME425-433 analog with Ala at the PΩ anchor position (SLLQHLIGA; UniProt P78395 425-433, looked up, variant L433A)” was tested, and the “ED50 change relative to native peptide” value (HLA-A*0201; printed as reduced / less (lower affinity)) was “more than 10 fold”.
For “L158V: NY-ESO-1 157-165 analog with V for L at position 158 (SVLMWITQC; UniProt P78358 157-165, looked up, variant L158V) [Peptide L158V]”, the “cross-reactivity / activity relative to wild-type, in words” value [4] was “partial retention of activity”.
In the case of “Lys P1 analog: PRAME425-433 analog with Lys for Ser at P1 (KLLQHLIGL)”, the “IFN-γ elicited, % of the native peptide” value ([5]; analog peptide at approximately 0.3 μM) is reported as 40%.
In the case of “S{Nva}LQHLIG{Nle} (S[Nva]LQHLIG[Nle]) [Prame 425-433 (L426Nva, L433Nle)]”, the “IFN-γ production (cross-reactivity) relative to native, in words” value ([5]; PRAME425-433 analogs at approximately 0.3 μM) is reported as “significant level of cross-reactivity”, the “ex vivo cytotoxicity against A2+ PRAME+ 624.38 cells, in words” value ([6]; mouse, in vivo) is reported as “cytotoxic immunity against a human tumor cell line; also recorded: significant cytotoxicity against human tumor cells expressing A2 (624.38)” and the “ex vivo cytotoxicity against A2- 624.28 control cells, in words” value ([6]; negative control cells) is reported as “no significant activity”. For the same compound, the “affinity (ED50) / binding characteristics relative to native, in words” value (HLA-A*0201) was “similar, somewhat improved binding characteristics”, the “expansion of native epitope-specific T cells (tetramer), in words” value [7] was “significantly higher than in mice primed with plasmid and boosted with the negative control peptide” and the “in vivo cytotoxicity against native epitope, in words” value [8] was “cytotoxic immunity against native epitope coated cells; also recorded: capable of expanding the immunity against the native epitope”. For the same compound, the “IFN-γ production by splenocytes (ELISA), in words” value (“IFN-γ production by splenocytes” below) ([9]; listed as L426Nva L433Nle) was “greater response” and the “IFN-γ production by splenocytes” value ([9]; listed as PRAME425-433 L426Nva L433Nle) was “significant enhancement of IFN-γ production”.
With “T{Nva}LQHLIG{Nle} (T[Nva]LQHLIG[Nle]) [S425T L426Nva L433Nle]” the “expansion of native epitope-specific T cells (tetramer), in words” value [7] was “significantly higher than in mice primed with plasmid and boosted with the negative control peptide”, the “in vivo cytotoxicity against native epitope, in words” value [8] was “capable of expanding the immunity against the native epitope” and the “IFN-γ production by splenocytes” value [9] was “ex vivo cytokine production”.
“YMDGTMSQV [Tyrosinase 369-377, reference compound]” was tested, and the “ex vivo cytotoxicity against 624.38 cells, in words” value (624.38 cells) was “robust cytotoxicity against 624.38 cells”.
“YVDGTMSQNva (YVDGTMSQ[Nva]) [M370V V377Nva]” was tested, and the “ex vivo cytotoxicity against 624.38 cells, in words” value (624.38 cells) was “robust cytotoxicity against 624.38 cells”.
